According to PMC8214221, “Sequence determinants in the cathelicidin LL-37 that promote inflammation via presentation of RNA to scavenger receptors” (The Journal of Biological Chemistry, 2021):
Residues, ends and D or L forms follow the SMILES beside them.

Assays:
[1] = system: normal human epidermal keratinocytes (NHEKs); assay: LDH release cytotoxicity assay in keratinocytes; format: cell-based; settings: minimal concentration giving 50% LDH release by NHEKs
Summary of the method: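 Normal human epidermal keratinocytes were exposed to LL-34 parent and alanine-substituted peptides. Cytotoxicity was read as LDH release in fresh culture supernatants after treatment, using a commercial kit, and reported as the minimal concentration showing toxicity.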

[2] = system: methicillin-resistant Staphylococcus aureus strain USA300; format: cell-based; settings: MIC comparison with parent (MIC 25 μM); 18 h
Description: Since LL-34 was the minimal truncation mutant of LL-37 that retained both antimicrobial and immune modulatory activity, we prepared a series of synthetic peptides with sequential substitutions of alanine at each amino acid position of the LL-34 parent peptide (Table 1). We compared the minimum inhibitory concentration (MIC) for the LL-34 parent peptide and the alanine mutants (LL-34 peptides—L1A and R34A) against methicillin-resistant Staphylococcus aureus strain USA300 (Fig. 1A). LL-34 peptides were incubated at concentrations of 0 to 100 μM with bacteria. The minimal concentration at which no growth was observed was noted after 18 h of incubation. […] Because of these changes in the MIC against S. aureus between the mutants, we investigated the effective toxicity profile of the peptides in normal human epidermal keratinocytes (NHEKs) by lactate dehydrogenase (LDH) release assay (Table 1). […] Most other peptides were cytotoxic at a minimal concentration of 10 μM, whereas LL-34—K15A was toxic at a concentration of 2.5 μM.
Methicillin-resistant S. aureus USA300 and methicillin-sensitive S. aureus SA113 (American Type Culture Collection 35556) were cultured in 3% tryptic soy broth overnight at 37 °C with shaking at 250 rpm. GAS M49 strain NZ131 was cultured in Todd Hewitt broth supplemented with 1% yeast extract overnight at 37 °C without shaking. E. coli R1 strain RS218 was cultured in LB broth overnight at 37 °C with shaking at 250 rpm. MIC values were determined using a round-bottom 96-well microdilution method with RPMI cell culture media (as a source of Ca^2+ and Mg^2+) supplemented with tryptic soy broth, Todd Hewitt broth/yeast extract, or LB to facilitate growth of the respective bacterial strains. Overnight bacterial cultures were subcultured into fresh broth and grown to midlate log phase indicated by an absorbance at 600 nm value between 0.8 and 1.0 for each bacterial strain. The absorbance was then normalized to provide a concentration of 1 × 10^7 colony-forming units/ml in RPMI medium. The LL-34 parent and alanine scan mutants were serially diluted into the 96-well microtiter plates containing prewarmed RPMI bacterial growth medium. A 10 μl aliquot of the midlate log phase bacteria was inoculated into the 96-well microtiter plates that contained 95 μl of RPMI medium with or without the LL-34 peptide dilutions and incubated for 16 to 18 h at […] with shaking at 200 rpm. Inhibition of growth was determined by measuring the absorbance at 600 nm readings of each well using a microplate reader (Infinite M200 Pro; Tecan). The MIC of each bacterial strain was determined by the lowest peptide concentration that inhibited more than 80% bacterial growth.

[3] = system: NHEKs, IL-6 secretion in response to U1 dsRNA; assay: IL-6 secretion ELISA in NHEKs; format: cell-based, human; settings: U1 dsRNA 2.5 μg/ml + peptide 2 μM, 18 h, n = 3
Protocol: Protein levels of human IL-6 were analyzed from cell supernatant with ELISA (n = 3). Corresponding MIC values of LL-34 peptides L1A–R34A against Staphylococcus aureus USA300 are shown in the heat map. B, human dermal endothelial cells (HDMECs) were treated with either U1 dsRNA (2.5 μg/ml) or a combination of U1 dsRNA (2.5 μg/ml) and LL-34 peptides (Pep 1–Pep 34 and Pep–parent LL-34) at 2 μM for 18 h. IL-6 ELISA results are shown (n = 3). Green bars denote loss of IL-6 protein secretion compared with parent control shown in red. C, helical wheel plot for LL-34. Amino acids with green circles denote specific residues where replacement with an alanine caused the loss of IL-6 secretion compared with parent LL-34 peptide in NHEKs cotreated with U1 dsRNA. D, in the helical wheel plot for LL-34, circled green amino acids indicate that a substitution caused a loss of vetting in HDMEC. E–H, NHEKs were treated with LL-34-parent peptide (LL-34-P), LL-34-F5A, LL-34-I24A, LL-34-F27A, and LL-34-L31A at 2 μM, either individually or in combination with U1 dsRNA (2.5 μg/ml) for 8 h. Gene expression of IL-6, IFNB1, TSLP, and CXCL10 was assessed with qRT-PCR. GAPDH was used as a reference gene (n = 3) (∗p < 0.05; ∗∗∗∗p < 0.0001). One way-ANOVA was used. IL-6, interleukin 6; LL-34, 34-amino acid peptide; MIC, minimum inhibitory concentration, ns, not significant.
We hypothesized that sequential replacement of each amino acid in LL-34 peptide with a neutral amino acid alanine might reveal the amino acid residues critical for its ability to induce inflammation in response to U1 dsRNA. First, we treated NHEKs and human dermal microvascular endothelial cells (HDMECs) with LL-34 parent peptide and each of the 34 mutants at 2 μM for 18 h and measured the secretion of interleukin 6 (IL-6) in the supernatant by ELISA (Fig. S1, A and B). […] We then treated both NHEKs and HDMECs with a combination of U1 dsRNA (2.5 μg/ml) and the LL-34 parent/mutant peptides at 2 μM for 18 h and measured IL-6 secretion (Fig. 1, A–C). […] A similar pattern of IL-6 release was observed when HDMECs were treated with the peptide library and U1 dsRNA (Fig. 1B).
Cell culture supernatant was frozen at −80 °C until use for analysis. ELISA was performed with sandwich ELISA kits (R&D Systems) and quantified on a Spectramax Absorbance reader (Molecular Biosystems). Data were analyzed with GraphPad.

SMILES: CC[C@H](C)[C@H](NC(=O)[C@H](CCCCN)NC(=O)[C@H](CCC(=O)O)NC(=O)[C@H](CCCCN)NC(=O)[C@H](CO)NC(=O)[C@H](CCCCN)NC(=O)[C@H](CCCNC(=N)N)NC(=O)[C@H](Cc1ccccc1)NC(=O)[C@H](Cc1ccccc1)NC(=O)[C@H](CC(=O)O)NC(=O)CNC(=O)[C@H](CC(C)C)NC(=O)[C@@H](N)CC(C)C)C(=O)NCC(=O)N[C@@H](CCCCN)C(=O)N[C@@H](CCC(=O)O)C(=O)N[C@@H](Cc1ccccc1)C(=O)N[C@@H](CCCCN)C(=O)N[C@@H](CCCNC(=N)N)C(=O)N[C@H](C(=O)N[C@H](C(=O)N[C@@H](CCC(N)=O)C(=O)N[C@@H](CCCNC(=N)N)C(=O)N[C@H](C(=O)N[C@@H](CCCCN)C(=O)N[C@@H](CC(=O)O)C(=O)N[C@@H](Cc1ccccc1)C(=O)N[C@@H](C)C(=O)N[C@@H](CCCNC(=N)N)C(=O)N[C@@H](CC(N)=O)C(=O)N[C@@H](CC(C)C)C(=O)N[C@H](C(=O)N1CCC[C@H]1C(=O)N[C@@H](CCCNC(=N)N)C(=O)O)C(C)C)[C@@H](C)CC)C(C)C)[C@@H](C)CC [LL-34—L28A] (H-LLGDFFRKSKEKIGKEFKRIVQRIKDFARNLVPR-OH)
- Minimal cytotoxic concentration in NHEK (LD50) [1]: 5 µM
- Antimicrobial potency against S. aureus USA300 compared with LL-34 parent peptide [2]: killed S. aureus USA300 more potently
- IL-6 protein secretion, cotreatment with U1 dsRNA, vs U1 dsRNA + LL-34 parent [3]: reduced secretion of IL-6 protein
